Key:
[1] = tested on: Mus musculus; experiment: In vivo activity of compound was measured against P388 lymphocytic leukemia at the dose of 100 mg/kg; toxic; assay type: functional, organism-based; parameters: dose 100 mg/kg
[2] = tested on: Mus musculus; experiment: In vivo activity of compound was measured against P388 lymphocytic leukemia at the dose of 12.5 mg/kg.; assay type: functional
[3] = tested on: Mus musculus; experiment: In vivo activity of compound was measured against P388 lymphocytic leukemia at the dose of 200 mg/kg; toxic; assay type: functional, organism-based; parameters: dose 200 mg/kg
[4] = tested on: Mus musculus; experiment: In vivo activity of compound was measured against P388 lymphocytic leukemia at the dose of 25 mg/kg.; assay type: functional
[5] = tested on: Mus musculus; experiment: In vivo activity of compound was measured against P388 lymphocytic leukemia at the dose of 3.13 mg/kg.; assay type: functional
[6] = tested on: Mus musculus; experiment: In vivo activity of compound was measured against P388 lymphocytic leukemia at the dose of 50 mg/kg; toxic; assay type: functional, organism-based; parameters: dose 50 mg/kg
[7] = tested on: Mus musculus; experiment: In vivo activity of compound was measured against P388 lymphocytic leukemia at the dose of 6.25 mg/kg.; assay type: functional
[8] = tested on: Mus musculus; experiment: In vivo activity of compound was measured against P388 lymphocytic leukemia at the dose of 0.78 mg/kg.; assay type: functional
[9] = tested on: Mus musculus; experiment: In vivo activity of compound was measured against P388 lymphocytic leukemia at the dose of 1.56 mg/kg.; assay type: functional
[10] = tested on: Mus musculus; experiment: In vivo activity of compound was measured against P388 lymphocytic leukemia at the dose of 25 mg/kg; toxic; assay type: functional, organism-based; parameters: dose 25 mg/kg
[11] = tested on: Mus musculus; experiment: In vivo activity of compound was measured against P388 lymphocytic leukemia at the dose of 12.5 mg/kg; assay type: functional
[12] = tested on: Mus musculus; experiment: In vivo activity of compound was measured against P388 lymphocytic leukemia at the dose of 25 mg/kg; assay type: functional
[13] = tested on: Mus musculus; experiment: In vivo activity of compound was measured against P388 lymphocytic leukemia at the dose of 50 mg/kg; assay type: functional
[14] = tested on: Mus musculus; experiment: In vivo activity of compound was measured against P388 lymphocytic leukemia at the dose of 6.25 mg/kg; assay type: functional
[15] = tested on: Mus musculus; experiment: In vivo activity of compound was measured against P388 lymphocytic leukemia at the dose of 0.76 mg/kg.; assay type: functional
[16] = tested on: Mus musculus; experiment: In vivo activity of compound was measured against P388 lymphocytic leukemia at the dose of 0.78 mg/kg; toxic; assay type: ADME, organism-based; parameters: dose 0.78 mg/kg
[17] = tested on: Mus musculus; experiment: In vivo activity of compound was measured against P388 lymphocytic leukemia at the dose of 100 mg/kg.; assay type: functional
[18] = tested on: Mus musculus; experiment: In vivo activity of compound was measured against P388 lymphocytic leukemia at the dose of 50 mg/kg.; assay type: functional
[19] = tested on: Mus musculus; experiment: In vivo activity of compound was measured against P388 lymphocytic leukemia at the dose of 100 mg/kg; assay type: functional

CNC(=O)OCc1c(COC(=O)NC)c(-c2cccc(F)c2F)n2c1CCC2
T/C [1]: Toxic
T/C [2]: 149%
T/C [3]: Toxic
T/C [4]: 156%
T/C [5]: 134%
T/C [6]: Toxic
T/C [7]: 131%

CNC(=O)OCc1c(COC(=O)NC)c(-c2ccc(F)cc2)n2c1CCC2
T/C [8]: 146%
T/C [9]: 122%
T/C [1]: Toxic
T/C [2]: 128%
T/C [3]: Toxic
T/C [10]: Toxic
T/C [5]: 141%
T/C [6]: Toxic
T/C [7]: 137%

CNC(=O)OCc1c(COC(=O)NC)c(-c2cc(F)ccc2F)n2c1CCC2
T/C [1]: Toxic
T/C [11]: 151%
T/C [3]: Toxic
T/C [12]: 156%
T/C [13]: 73%
T/C [14]: 147%

CC(C)NC(=O)OCc1c(COC(=O)NC(C)C)c(-c2ccc(F)cc2F)n2c1CCC2
T/C [15]: 135%
T/C [9]: 142%
T/C [1]: Toxic
T/C [2]: 180%
T/C [3]: Toxic
T/C [4]: 99%
T/C [5]: 168%
T/C [6]: Toxic
T/C [7]: 162%

CNC(=O)OCc1c(COC(=O)NC)c(-c2c(F)cccc2F)n2c1CCC2
T/C [1]: Toxic
T/C [2]: 148%
T/C [3]: Toxic
T/C [4]: 88%
T/C [5]: 148%
T/C [6]: Toxic
T/C [7]: 166%

CC(C)NC(=O)OCc1c(COC(=O)NC(C)C)c(-c2ccc(F)c(F)c2)n2c1CCC2
T/C [16]: Toxic
T/C [9]: 126%
T/C [17]: 70%
T/C [2]: 178%
T/C [3]: Toxic
T/C [4]: 123%
T/C [5]: 151%
T/C [18]: 92%
T/C [7]: 160%

CC(C)NC(=O)OCc1c(COC(=O)NC(C)C)c(-c2ccc(Cl)c(Cl)c2)n2c1CCC2
T/C [9]: 122%
T/C [19]: 113%
T/C [2]: 177%
T/C [3]: Toxic
T/C [4]: 226%
T/C [5]: 141%
T/C [13]: 160%
T/C [7]: 149%
